Peptide text beside a SMILES is read from it.
Biological target: T1, 20S proteasome (chymotrypsin-like peptidase) (Homo sapiens, UniProt P28074)
T1 construct: gene PSMB5; purified human 20S proteasome; chymotrypsin-like site (beta5, with beta6 contact)
T1 sequence (P28074 60-263): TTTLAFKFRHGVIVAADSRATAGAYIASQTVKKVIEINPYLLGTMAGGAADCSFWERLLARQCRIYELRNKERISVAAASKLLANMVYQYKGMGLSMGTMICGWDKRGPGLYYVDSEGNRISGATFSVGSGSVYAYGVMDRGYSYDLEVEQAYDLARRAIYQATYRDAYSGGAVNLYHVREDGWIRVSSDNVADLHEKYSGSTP
T1 sequence (P20618 29-241 partner): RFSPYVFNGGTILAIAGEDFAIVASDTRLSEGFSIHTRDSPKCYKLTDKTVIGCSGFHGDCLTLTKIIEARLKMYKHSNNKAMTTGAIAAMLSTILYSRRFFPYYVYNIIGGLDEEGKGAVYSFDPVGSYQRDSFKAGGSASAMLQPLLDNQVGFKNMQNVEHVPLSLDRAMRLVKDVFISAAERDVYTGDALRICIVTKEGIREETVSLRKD
Test: fluorogenic peptidase assay
Type: biochemical
Conditions: 37 °C; chymotrypsin-like site

Cc1cc(=O)oc2cc(NC(=O)[C@H](Cc3ccc(O)cc3)NC(=O)[C@@H](NC(=O)[C@H](CC(C)C)NC(=O)[C@H](CC(C)C)NC(=O)CCC(=O)O)C(C)C)ccc12 [Suc-LLVY-AMC, Suc-Leu-Leu-Val-Tyr-aminomethylcoumarin] (HELM PEPTIDE1{[O=C(O)CCC(=O)[*:2]].L.L.V.Y.[Cc1cc(=O)oc2cc(N[*:1])ccc12]}$$$$V2.0)
fluorogenic peptidase assay: Chymotrypsin-like activity of the proteasome was assessed with fluorogenic Suc-LLVY-AMC substrate

— paper PMC7304060, “Broad Spectrum Deubiquitinase Inhibition Induces Both Apoptosis and Ferroptosis in Cancer Cells” (Frontiers in Oncology, 2020)
